Laboratory results from US12643924B2, “Cardiac-specific targeting-peptide (CTP), compositions, and uses thereof” (University of Pittsburgh—Of the Commonwealth System of …, priority 2018, dated 2026).
Where no end group is shown, it is not given here.

Columns and labels:
H9C2 cells [1] = experiment: Alanine scan: percentage of Cy5.5 positive H9C2 cells by FACS; type: cell-based, rat; conditions: percentage of Cy5.5 positive H9C2 cells normalized to non-mutated peptide (SEQ ID NO: 1); Cy5.5-conjugated peptides, 30 minutes at 37° C.
Method: (§1) Variants of SEQ ID NO: 1 in which every amino acid was systematically mutated to alanine were synthesized in the University of Pittsburgh Peptide Synthesis Facility. Each variant was conjugated to the Cyanine5.5 fluorescent dye (Cy5.5). The rat cardiomyocyte cell line H9C2 (ATCC, catalogue #: CRL-1446) was incubated for 30 minutes at 37° C. with Dimethyl sulfoxide (DMSO) as a control, or the alanine peptide variants. Cells were then washed 3 times with PBS, trypsinized and resuspended, stained for live/dead cells, and then FACS sorted for Cy5.5 positive cells.
The percentage of Cy5.5 positive H9C2 cells, normalized to the non-mutated peptide (SEQ ID NO: 1), for each peptide variant is summarized in Table 2 below.

H9C2 cells [2] = experiment: Fluorescence activated cell sorting of H9C2 cells after 30 min incubation with 10 uM peptide (median Cy5.5); type: cell-based, rat; conditions: for Corrected Median Cy5.5 / Raw Median Cy5.5: H9C2 cells, 30 min incubation, 10 uM peptide, single replicates; for Corrected Median Cy5.5: corrected for peptide fluorescence; for Average Correction: average of corrected median Cy5.5, H9C2 cells, FIG. 1C
Method: as §1

Question: What does the source list for “APWHLASQYSRT (also: Cy5.5 conjugate, site not given here) [S6A, alanine variant of CTP, Cy5.5 conjugated]”?
Answer: % transduction of H9C2 Cells (H9C2 cells [1]): 107.21%; Corrected Median Cy5.5 (H9C2 cells [2]; listed as S6A_001): 17793.0; Corrected Median Cy5.5 (H9C2 cells [2]; listed as S6A_002): 18393.5; Corrected Median Cy5.5 (H9C2 cells [2]; listed as S6A_003): 20420.3; Raw Median Cy5.5 (H9C2 cells [2]; listed as S6A_001): 22342; Raw Median Cy5.5 (H9C2 cells [2]; listed as S6A_002): 23096; Raw Median Cy5.5 (H9C2 cells [2]; listed as S6A_003): 25641; Average Correction (H9C2 cells [2]): 18868.9

Question: For “APWHLSSAYSRT (also: Cy5.5 conjugate, site not given here) [Q8A, alanine variant of CTP, Cy5.5 conjugated]”, which “% transduction of H9C2 Cells” value (H9C2 cells [1]) is on record?
Answer: The value was 67.35%.

Question: What about the “Corrected Median Cy5.5” value (H9C2 cells [2]; listed as Q8A_001) of the same sequence?
Answer: The value was 9725.5.

Question: What about the “Corrected Median Cy5.5” value (H9C2 cells [2]; listed as Q8A_002) of the same sequence?
Answer: Its value is 9339.0.

Question: And the “Corrected Median Cy5.5” value (H9C2 cells [2]; listed as Q8A_003)?
Answer: The value was 9049.4.

Question: And the “Raw Median Cy5.5” value (H9C2 cells [2]; listed as Q8A_001)?
Answer: Its value is 10041.

Question: What about the “Raw Median Cy5.5” value (H9C2 cells [2]; listed as Q8A_002) of the same sequence?
Answer: Its value is 9642.

Question: And the “Raw Median Cy5.5” value (H9C2 cells [2]; listed as Q8A_003)?
Answer: The value was 9343.

Question: And the “Average Correction” value (H9C2 cells [2])?
Answer: Its value is 9371.3.

Question: What does the source list for “APWHASSQYSRT (also: Cy5.5 conjugate, site not given here) [L5A, alanine variant of CTP, Cy5.5 conjugated]”?
Answer: % transduction of H9C2 Cells (H9C2 cells [1]): 87.81%; Corrected Median Cy5.5 (H9C2 cells [2]; listed as L5A_001): 5077.5; Corrected Median Cy5.5 (H9C2 cells [2]; listed as L5A_002): 5522.0; Corrected Median Cy5.5 (H9C2 cells [2]; listed as L5A_003): 5370.0; Raw Median Cy5.5 (H9C2 cells [2]; listed as L5A_001): 3107; Raw Median Cy5.5 (H9C2 cells [2]; listed as L5A_002): 3379; Raw Median Cy5.5 (H9C2 cells [2]; listed as L5A_003): 3286; Average Correction (H9C2 cells [2]): 5323.2

Question: Which “% transduction of H9C2 Cells” value (H9C2 cells [1]) does the source give for “APWHLSSQYART (also: Cy5.5 conjugate, site not given here) [S10A, alanine variant of CTP, Cy5.5 conjugated]” here?
Answer: Its value is 30.61%.

Question: What about the “Corrected Median Cy5.5” value (H9C2 cells [2]; listed as S10A_001) of the same sequence?
Answer: The value was 3707.6.

Question: What about the “Corrected Median Cy5.5” value (H9C2 cells [2]; listed as S10A_002) of the same sequence?
Answer: The value was 3658.1.

Question: And the “Corrected Median Cy5.5” value (H9C2 cells [2]; listed as S10A_003)?
Answer: The value was 3959.6.

Question: What about the “Raw Median Cy5.5” value (H9C2 cells [2]; listed as S10A_001) of the same sequence?
Answer: The value was 1722.

Question: What about the “Raw Median Cy5.5” value (H9C2 cells [2]; listed as S10A_002) of the same sequence?
Answer: The value was 1699.

Question: And the “Raw Median Cy5.5” value (H9C2 cells [2]; listed as S10A_003)?
Answer: The value was 1839.

Question: What about the “Average Correction” value (H9C2 cells [2]) of the same sequence?
Answer: The value was 3775.1.

Question: Which results are given for “APWHLSSQYSRT (also: Cy5.5 label, site not given here) [CTP, 12-amino acid cardiac-specific targeting peptide, tested conjugated to Cy5.5]”?
Answer: % transduction of H9C2 Cells (H9C2 cells [1]): 100%; Corrected Median Cy5.5 (H9C2 cells [2]; listed as CTP_001): 5652.0; Corrected Median Cy5.5 (H9C2 cells [2]; listed as CTP_002): 6028.0; Corrected Median Cy5.5 (H9C2 cells [2]; listed as CTP_003): 6308.0; Raw Median Cy5.5 (H9C2 cells [2]; listed as CTP_001): 5652; Raw Median Cy5.5 (H9C2 cells [2]; listed as CTP_002): 6028; Raw Median Cy5.5 (H9C2 cells [2]; listed as CTP_003): 6308; Average Correction (H9C2 cells [2]): 5996

Question: What does the source list for “APAHLSSQYSRT (also: Cy5.5 conjugate, site not given here) [W3A, alanine variant of CTP, Cy5.5 conjugated]”?
Answer: % transduction of H9C2 Cells (H9C2 cells [1]): 75.81%; Corrected Median Cy5.5 (H9C2 cells [2]; listed as W3A_001): 5369.7; Corrected Median Cy5.5 (H9C2 cells [2]; listed as W3A_002): 5369.7; Corrected Median Cy5.5 (H9C2 cells [2]; listed as W3A_003): 5258.1; Raw Median Cy5.5 (H9C2 cells [2]; listed as W3A_001): 4862; Raw Median Cy5.5 (H9C2 cells [2]; listed as W3A_002): 4862; Raw Median Cy5.5 (H9C2 cells [2]; listed as W3A_003): 4761; Average Correction (H9C2 cells [2]): 5332.5

Question: With “APWHLSSQASRT (also: Cy5.5 conjugate, site not given here) [Y9A, alanine variant of CTP, Cy5.5 conjugated]” as the sequence, how does the “% transduction of H9C2 Cells” value (H9C2 cells [1]) read?
Answer: Its value is 107%.

Question: What about the “Corrected Median Cy5.5” value (H9C2 cells [2]; listed as Y9A_001) of the same sequence?
Answer: The value was 5365.7.

Question: What about the “Corrected Median Cy5.5” value (H9C2 cells [2]; listed as Y9A_002) of the same sequence?
Answer: Its value is 5445.9.

Question: And the “Corrected Median Cy5.5” value (H9C2 cells [2]; listed as Y9A_003)?
Answer: Its value is 5586.0.

Question: What about the “Raw Median Cy5.5” value (H9C2 cells [2]; listed as Y9A_001) of the same sequence?
Answer: The value was 5018.

Question: What about the “Raw Median Cy5.5” value (H9C2 cells [2]; listed as Y9A_002) of the same sequence?
Answer: Its value is 5093.

Question: And the “Raw Median Cy5.5” value (H9C2 cells [2]; listed as Y9A_003)?
Answer: Its value is 5224.

Question: And the “Average Correction” value (H9C2 cells [2])?
Answer: The value was 5465.9.

Question: Which results are given for “APWHLSSQYSRA (also: Cy5.5 conjugate, site not given here) [T12A, alanine variant of CTP, Cy5.5 conjugated]”?
Answer: % transduction of H9C2 Cells (H9C2 cells [1]): 90.33%; Corrected Median Cy5.5 (H9C2 cells [2]; listed as T12A_001): 14307.2; Corrected Median Cy5.5 (H9C2 cells [2]; listed as T12A_002): 15682.3; Corrected Median Cy5.5 (H9C2 cells [2]; listed as T12A_003): 15498.6; Raw Median Cy5.5 (H9C2 cells [2]; listed as T12A_001): 18458; Raw Median Cy5.5 (H9C2 cells [2]; listed as T12A_002): 20232; Raw Median Cy5.5 (H9C2 cells [2]; listed as T12A_003): 19995; Average Correction (H9C2 cells [2]): 15162.7

Question: Which “% transduction of H9C2 Cells” value (H9C2 cells [1]) does the source give for “APWALSSQYSRT (also: Cy5.5 conjugate, site not given here) [H4A, alanine variant of CTP, Cy5.5 conjugated]” here?
Answer: Its value is 55.05%.

Question: And the “Corrected Median Cy5.5” value (H9C2 cells [2]; listed as H4A_001)?
Answer: Its value is 7666.1.

Question: And the “Corrected Median Cy5.5” value (H9C2 cells [2]; listed as H4A_002)?
Answer: The value was 8011.3.

Question: What about the “Corrected Median Cy5.5” value (H9C2 cells [2]; listed as H4A_003) of the same sequence?
Answer: The value was 6934.0.

Question: What about the “Raw Median Cy5.5” value (H9C2 cells [2]; listed as H4A_001) of the same sequence?
Answer: The value was 7173.

Question: And the “Raw Median Cy5.5” value (H9C2 cells [2]; listed as H4A_002)?
Answer: Its value is 7496.

Question: What about the “Raw Median Cy5.5” value (H9C2 cells [2]; listed as H4A_003) of the same sequence?
Answer: The value was 6488.

Question: What about the “Average Correction” value (H9C2 cells [2]) of the same sequence?
Answer: The value was 7537.1.
